From US12281123B2, “Benzoxazinone compounds as KLK5/7 dual inhibitors” (MOLECULAR SKIN THERAPEUTICS, INC., priority 2019, dated 2025)
Marks after values point to notes of the source that are not given here.

Assays:
Assay type in all cases: biochemical
[1] = tested on: KLK proteases in human skin extract; assay: Inhibition of protease activity in human skin extract; conditions: human skin extract; for Rate in Skin Assay: compound concentration not given
Procedure: Materials: The peptide substrates PS-01 (YRSR-pNA Tyr-Arg-Ser-Arg-pNA) (SEQ ID NO. 1) and PS-02 (Lys-His-Leu-Tyr-pNA) (SEQ ID NO. 2) were synthesized by Zamboni Chemical Solutions (Montreal, Canada). Human epidermis samples were obtained from Biopredic (Saint-Grégoire, France). The BCA protein assay kit was bought from VWR.
Preparation of skin extract: The epidermis was frozen and lyophilized. A sample of 15 mg lyophilized epidermis was immersed in 1 mL high salt buffer (100 mM Tris, 5 mM EDTA, 2M KCl, pH 8), frozen twice in dry ice and thawed. After incubation overnight at 4° C. and addition of six 2.4 mm metal beads, the sample was homogenized in a Bertin Precellys Homogenizer (Atkinson, NH) three times at […] for 20 seconds each and cooled in between for 30 seconds. After centrifugation at maximal speed in a desktop minifuge, the protein concentration of the supernatant was determined by BCA assay (˜0.5 mg/mL).
Inhibition of protease activity in skin extract: Stock solutions of 200, 66, 22 and 0 μM of the tested compound in DMSO were prepared. Substrate stocks of 1100 μM PS-01 and PS-02 were prepared by dissolving in water. The wells of a 384 well plate was filled with 50 μL 2× assay buffer (see above) and then 45 μL substrate stock and 5 μL of the test compound were added. The reaction was started by addition of 10 μL skin extract for the substrate PS-02 and 5 μL for the substrate PS-01. The substrate hydrolysis was monitored in multi-well plate reader at 405 nm.
Chromogenic substrate cleavage progressions of Compounds 1.001, 1.002, and 14 were tested according to human stratum corneum extract assay of Example 4 using KLK5 and KLK7 preferred chromogenic peptide substrates (PS-01 and PS-02). The proteolytic cleavage of KLK5 selective substrate in skin extract by Compounds 1.001, 1.002, and 14 are compared and shown in FIGS. 4A-4D. NSK refers to extract from skin freshly prepared; and OSK refers to extract from skin post freeze thaw.

[2] = molecular target: T1, Recombinant human KLK5 (Homo sapiens, UniProt Q9Y337); assay: Recombinant KLK5 chromogenic IC50 assay; conditions: Table 2; assay protocol of Example 3; read-out: Recombinant KLK5 enzyme (IC50)
T1 construct: purchased SpeedBio (Gaithersburg, MD) / SpeedBioSystems; host or cells: HEK293
T1 sequence (Q9Y337 23-293): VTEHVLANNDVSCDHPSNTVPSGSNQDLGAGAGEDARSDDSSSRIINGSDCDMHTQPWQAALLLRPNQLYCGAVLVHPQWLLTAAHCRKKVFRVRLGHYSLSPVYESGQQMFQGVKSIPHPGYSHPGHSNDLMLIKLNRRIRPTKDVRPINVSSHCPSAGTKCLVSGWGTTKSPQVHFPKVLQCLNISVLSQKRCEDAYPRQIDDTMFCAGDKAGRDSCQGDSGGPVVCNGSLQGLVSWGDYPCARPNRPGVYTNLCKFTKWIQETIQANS
Source text: (§1) Human Kallikrein Proteins: Recombinant human KLK5 expressed in HEK293 was obtained from SpeedBio (Gaithersburg, MD). Recombinant proenzyme KLK-7 and recombinant proenzyme KLK-14 both expressed in mouse myeloma cells were from R&D Biosystems (Minneapolis, MN). Plasmin and thrombin were from Haematologic Technologies (Essex Junction, VT). Trypsin and Chymotrypsin were bought from Worthington Biochemical Corporation (Lakewood, NJ) and plasma kallikrein was from Prospec (East Brunswick, NJ). Neutrophil Elastase was obtained from Innovative Research (Peary Court, MI). Bovine recombinant enterokinase expressed in E. coli was bought from Sigma (St. Louis, MI). Matriptase expressed in E. coli was obtained from Enzo Life Sciences (Farmingdale, NY). The control inhibitors Nafamostat mesylate was from Sigma (St. Louis, MI) and (2-(2-fluorophenyl)-5,6,7,8-tetrahydro-4H-benzo[4,5]thieno[2,3-d][1,3]oxazin-4-one was from Interbioscreen (Moskow, Russia).
(§2) Substrates: S-2288 (D-Ile-Pro-Arg-pNA), CS-PSA (MeO-Suc-Arg-Pro-Tyr-pNA), S-2266 (H-D-Val-Leu-Arg-pNA) and S-2288 (H-D-Ile-Pro-Arg-pNA) were bought from Diapharma (West Chester, OH). MeOSuccAla-Ala-Pro-Val-pNA was purchased from Sigma (St Louis, MI). The substrates were dissolved in water at 10 mM and were frozen in aliquots at −20° C.
(§3) Assays: All assays were performed in 384 well polystyrene plates coated overnight with 0.1% Tween 20 at 4° C. The plates were then washed twice with 100 μL water and dried. For the determination of IC50 values, the inhibitors were diluted in serial dilutions of 1:3 intervals into pure DMSO at 50 fold of the intended final concentrations in the assays. Usually eight inhibitor dilutions and one DMSO control were prepared. The substrates were diluted into water at 2.2-fold the final concentration in the assay mixture. The wells of the plate were filled with 50 μL of the enzyme diluted in 2× assay buffer (100 mM Tris, 200 mM NaCl, 0.2% PEG, 0.01% Tween, 2 mM EDTA, pH 8.0) at twofold the intended concentration. Then 5 μL DMSO, 2.2 μL inhibitor and 45 μL substrate were added to start the reaction. The assays were monitored at 37° C. in a multi well plate reader at a wavelength of 405 nm (Molecular Devices, San Jose, CA) for 1 h. The tool inhibitor, nafamostat, was used as a control for trypsin, thrombin, KLK-5 and KLK-14 at 10 μM maximal concentration and (2-(2-fluorophenyl)-5,6,7,8-tetrahydro-4H-benzo[4,5]thieno[2,3-d][1,3]oxazin-4-one for KLK-7 at 5 μM.
(§4) The table summarizes assay conditions for the individual enzymes:
(§5) Data analysis: The progress curves of substrate hydrolysis were analyzed by linear regression of the final 20 min of the reaction. Fit of the dose response of the resulting rates to the following equation yielded the IC50:
(§6) [formula] with 1) c: the background rate at the highest inhibitor concentration; 2) d: the rate of the control reaction; 3) IC50: the IC50 of the inhibitor; 4) x: the inhibitor concentration; and 5) b: the slope.
(§7) Proteases: KLK5 (SpeedBioSystems); KLK7 (R&Dsystems) was activated with enterokinase (2 hours, 37° C.) prior to assay; Trypsin (Sigma Aldrich); Chymotrypsin (Sigma Aldrich); Factor Xa (Haematologic Technologies); Plasmin (Haematologic Technologies); KLK14 (R&Dsystems) was activated with enterokinase (1 hour, 37° C.) prior to assay; Thrombin (Haematologic Technologies); Neutrophil Elastase (Athens Research&Technology); and KLK1 (Prospec).

[3] = molecular target: T2, KLK7 (Homo sapiens, UniProt P49862); assay: Recombinant KLK7 chromogenic IC50 assay; conditions: Table 2; assay protocol of Example 3; read-out: Recombinant KLK7 enzyme (IC50)
T2 construct: purchased R&D Biosystems (Minneapolis, MN) / R&Dsystems; host or cells: mouse myeloma cells
Source text: as §1, §2
Activation of KLK-7 and KLK-14: 150 μL 8 μM solution of the proenzymes of KLK-7 or KLK-14 in 50 mM Tris, 10 mM CaCl2, 150 mM NaCl, 0.05% (w/v) Brij-35, pH 7.5 were mixed with 150 μL 10 μg/mL bovine enterokinase in the same buffer and incubated for 2 h for KLK-7 and 1 h for KLK-14 at 37° C. After the incubation period, activation was stopped by addition of 6 μL 0.5 M EDTA pH 8.0.
as §3, §4, §5, §6, §7

T2 sequence (P49862 30-253): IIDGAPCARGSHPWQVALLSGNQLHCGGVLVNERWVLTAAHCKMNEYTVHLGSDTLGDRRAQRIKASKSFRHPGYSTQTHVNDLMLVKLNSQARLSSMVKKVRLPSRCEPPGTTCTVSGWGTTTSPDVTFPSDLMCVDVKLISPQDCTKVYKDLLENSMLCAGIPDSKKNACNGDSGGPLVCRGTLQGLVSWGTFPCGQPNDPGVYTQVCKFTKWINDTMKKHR

Row | IC50 [2] [nM] | IC50 [3] [nM] | Compound | Initial rate of proteolytic activity ([1]; Conc 1 μM) | Initial rate of substrate hydrolysis ([1]; Conc 1 μM) | Initial rate of proteolytic activity ([1]; Conc 3.3 μM) | Initial rate of substrate hydrolysis ([1]; Conc 3.3 μM) | Rate in Skin Assay [1]
1 | 1570 | 220 | CS(=O)(=O)c1ccc(CO)cc1-c1nc2cc3c(cc2c(=O)o1)OCCO3 [Compound 1.002, 2-(5-(Hydroxymethyl)-2-(methylsulfonyl)phenyl)-7,8-dihydro-4H-[1,4]dioxino[2′,3′:4,5]benzo[1,2-d][1,3]oxazin-4-one] | 0.1* Absorbance405/min | 0.06* Absorbance405/min | 0.09* Absorbance405/min | 0.05* Absorbance405/min | 0.009* Absorbance405/min
2 | 240 | 130 | CS(=O)(=O)c1ccccc1-c1nc2cc3c(cc2c(=O)o1)OCCO3 [Compound 14, reference compound] | 0.13* Absorbance405/min | 0.1* Absorbance405/min | 0.11* Absorbance405/min | 0.08* Absorbance405/min | 0.14* Absorbance405/min
